Tests used:
ALK5 = target: T1, ALK5 (Homo sapiens, UniProt P36897); assay: LanthaScreen Eu Kinase Binding Assay, ALK5; conditions: 10-point titration, read-out: Kinase Inhibition: ALK5 IC50 (Lantha)
T1 sequence (P36897 34-503): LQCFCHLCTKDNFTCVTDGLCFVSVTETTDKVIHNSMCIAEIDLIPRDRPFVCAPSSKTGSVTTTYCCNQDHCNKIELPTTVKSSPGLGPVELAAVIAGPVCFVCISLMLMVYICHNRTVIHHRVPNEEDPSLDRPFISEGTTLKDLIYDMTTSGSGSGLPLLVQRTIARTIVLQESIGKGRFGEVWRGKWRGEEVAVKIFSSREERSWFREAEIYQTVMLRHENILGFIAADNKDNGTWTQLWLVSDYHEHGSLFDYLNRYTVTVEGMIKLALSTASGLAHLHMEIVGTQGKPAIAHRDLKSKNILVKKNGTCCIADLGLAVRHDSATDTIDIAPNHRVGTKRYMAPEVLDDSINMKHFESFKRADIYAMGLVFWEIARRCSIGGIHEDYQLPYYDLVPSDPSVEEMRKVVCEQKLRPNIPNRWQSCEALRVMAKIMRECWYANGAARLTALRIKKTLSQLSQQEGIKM
Procedure: Selected compounds of the present disclosure were assayed for inhibitory activity against ALK5 and ALK2. Activity determinations and selectivity were conducted by Thermo Fisher Scientific SelectScreen™ Biochemical Kinase Profiling Service using their LanthaScreen™ Eu Kinase Binding Assay Screening.
Binding of an Alexa Fluor™ conjugate or “tracer” to a kinase is detected by addition of a Eu-labeled anti-tag antibody. Binding of the tracer and antibody to a kinase results in a high degree of FRET, whereas displacement of the tracer with a kinase inhibitor results in a loss of FRET. This assay is carried out by mixing the compound tested with the reagents and reading; no development step is required.
Life Technologies' Kinase Tracers are based on ATP-competitive kinase inhibitors, making them suitable for detection of any compounds that bind to the ATP site. Inhibitors that bind the ATP site include both Type I kinase inhibitors, which bind solely to the ATP site, and Type II inhibitors (e.g., Gleevec®/Imatinib, Sorafenib, BIRB-796), which bind to both the ATP site and a second site often referred to as the allosteric site.
The test compounds were screened in 1% DMSO (final) in the well. For 10-point titrations, 3-fold serial dilutions were conducted from the starting concentration (see Table 2 below).
All Kinase/Antibody Mixtures were diluted to a 2× working concentration in the specified kinase buffer. The 4× AlexaFluor labeled Tracer was prepared in Kinase Buffer.
• Bar-coded, low volume, white, 384-well plate (Greiner Cat. #784207) • 1. 160 nL—100× Test Compound in 100% DMSO • 2. 3.84 μL—Kinase Buffer • 3. 8.0 μL—2× Kinase/Antibody Mixture • 4. 4.0 μL—4× Tracer • 5. 30-second plate shake • 6. 60-minute incubation at room temperature • 7. Read on fluorescence plate reader and analysis of the data
The following controls were made for each individual kinase and were located on the same plate as the kinase:
100% Displacement Control: The minimum Emission Ratio was established by the 100% Displacement Control wells, which contained the highest concentration of the known inhibitor used in that assay.
Known Inhibitor: A known inhibitor control standard curve, 10-point titration, was run for each individual kinase on the same plate as the kinase to ensure the inhibitor was displaced within an expected IC50 range previously determined.
The following equations were used for each set of data points: […]
Data generated were plotted using the graphing software XLfit from IDBS. The dose response curve was curve fit to model number 205.

[1] = tested on: TGF-β1-induced SMAD signaling pathway; assay: RD SMAD reporter (RDSR) assay; type: cell-based; conditions: Homo sapiens; 200 pg/ml rhTGF-beta1, 24 h
Description: TGF-beta (also referred to as TGF-β1) is a multifunctional, highly conserved cytokine with many key functions in development, cell growth and apoptosis, and plays a key role in the tissue repair response and functions as a potent immune modulator. TGF-β signaling is triggered when the activated TGF-β homodimer binds to the TGF-β receptor 2, which in turn leads to the recruitment and phosphorylation of TGF-β receptor 1 (ALK5). Activated TGF-β receptor 1 phosphorylates the signal transduction molecules SMAD2 and SMAD3. These bind to common mediator SMAD4 and translocate to the nucleus where they bind to short conserved DNA sequences called the SMAD binding element and induce the transcription of various target genes.
A stable cellular reporter, the RD SMAD reporter (RDSR), was generated to test the ability of certain compounds disclosed herein to inhibit the canonical TGF-β1-induced SMAD signaling pathway in a cellular context. The RD SMAD reporter (RDSR) cell line was generated by stably integrating the SMAD cellular reporter plasmid (Promega, pGL4.48[luc2P/SBE/Hygro]) into the human rhabdomyosarcoma cell line RD (ATCC, CCL-136). Once SMAD signaling was triggered with, for example, the addition of TGF-beta1, receptor-activated SMADs bind the SMAD binding elements (SBEs) leading to the expression of intracellular luciferase.
The rhabdomyosarcoma line RD (ATCC, CCL-136) was transfected with a SMAD reporter vector (Promega, E3671) and a polyclonal stable cell line was selected using hygromycin B. The transfected vector contained three copies of a Smad-binding element (SBE) that drives transcription of the luciferase reporter gene luc2P (Photinus pyralis). luc2P is a synthetically-derived luciferase sequence with humanized codon optimization that is designed for high expression and reduced anomalous transcription. The luc2P gene contains hPEST, a protein destabilization sequence, which allows luc2P protein levels to respond more quickly than those of luc2 to induction of transcription. The intracellular luciferase is quantified by the addition of equal volume (100 μl) of ONE-GLO substrate (Promega, E6120) and read within ten minutes on the Envision plate reader. The stable RDSR cell line was tested by evaluating the response to human TGF-beta1 (R&D Systems, 7754-BH-005) as well as myostatin (R&D Systems, 788-G8-010/CF) in a concentration-dependent manner after twenty-four hours of stimulation. […] For compound evaluation, the tool compounds (vactosertib and PF-06952229 (a TGFβR1 inhibitor available from MedChem Express HY-136244) were included as positive controls) or test compounds were incubated with cells for one hour at 37° C. then stimulated with 200 pg/ml rhTGF-beta1 for twenty-four hours. The activity of the reporter was determined with the addition of ONE-GLO (Promega) substrate, and luminescence counts were collected on the Envision plate reader (Perkin Elmer). The IC50 or EC50 was calculated using nonlinear regression curve fitting with graph pad prism software.
A comparative RDSR analysis was performed using IC50 values for selected compounds and standards obtained using the RDSR assay protocol described in Example 3.
The tool compounds vactosertib (an ALK5 inhibitor sourced from MedChem Express, HY-19928) and PF-06952229 (a TGFβR1 inhibitor) were included in the study as comparator compounds. Selected example compounds or comparator compounds were incubated with cells for one hour at 37° C. then stimulated with 200 pg/ml rhTGF-beta1 for twenty-four hours. The activity of the reporter was determined by adding ONE-GLO (Promega) substrate, and collecting luminescence counts on the Envision plate reader (Perkin Elmer).
Each of the example compounds and comparator compounds were tested at drug concentrations of from 20 micromolar to 1 nanomolar, and the IC50 value for each was calculated using Graph Pad Prism software. DMSO was used as a negative control and all wells contained normalized DMSO concentrations. […]

| Structure (SMILES) | IC50 (ALK5) [nM] | EC50 [1] [nM] |
| --- | --- | --- |
| Cc1cccc2c(Nc3ccnc(Nc4ccc(N5CCOCC5)cc4)c3)cnnc12 [Compound 05, N4-(8-methylcinnolin-4-yl)-N2-[4-(morpholin-4-yl)phenyl]pyridine-2,4-diamine] | 2 to 5 | < 50 |
| Clc1cccc2c(Nc3ccnc(Nc4cccc(N5CCOCC5)c4)c3)cnnc12 [Compound 04, N4-(8-chlorocinnolin-4-yl)-N2-[3-(morpholin-4-yl)phenyl]pyridine-2,4-diamine] | 2 to 5 | < 50 |
| Cc1nn(CC(F)(F)F)cc1Nc1cc(Nc2cnnc3c(C)cccc23)ccn1 [Compound 01, N2-[3-methyl-1-(2,2,2-trifluoroethyl)-1H-pyrazol-4-yl]-N4-(8-methylcinnolin-4-yl)pyridine-2,4-diamine] | ≤ 2 | < 50 |

— patent US20240197729A1, “ALK-5 Inhibitors and Uses Thereof” (Sumitomo Pharma Oncology, Inc., priority 2021, published 2024)
